Marks after values point to notes of the source that are not given here.
Columns and labels:
Pfotenoedem = test: Rat paw oedema test after oral administration (anti-inflammatory effect); format: in vivo, Ratte
Text: (§1) Die entzündungshemmende Wirkung wurde mit ausgewählten Verbindungen jedes Estertyps im Vergleich zum jeweiligen Standard im konventionellen Rattenpfotenoedemtest nach oraler Applikation untersucht. Die Ergebnisse sind in Tab. 3 zusammengefaßt. Weiterhin wurde mit einigen Verbindungen die entzündungshemmende Aktivität nach dermaler Applikation am Kaolin-induzierten Pfotenoedem der Ratte untersucht. Für den Test wurden die Substanzen in einer Mischung aus Ethanol/Aceton/Dimethylacetamid gelöst und im konstanten Volumen 30 Min. vor und 150 Min. nach Injektion von Kaolin (0,1 ml 10%-ige Suspension in Wasser) appliziert. Das Pfotenvolumen wurde 2, 4 und 6 Stunden nach Kaolininjektion gemessen. Die Ergebnisse sind in Tabelle 4 zusammengefaßt.

[1] = test system: Kaolin-induziertes Pfotenoedem; test: Kaolin-induced rat paw oedema after dermal administration; format: in vivo, Ratte; details: 10 mg/kg standard acid, esters 12.3-13.2 mg/kg equivalent to 10 mg/kg acid, applied 30 min before and 150 min after kaolin; for % Hemmung 2h: 2 h after kaolin injection; for % Hemmung 4h: 4 h after kaolin injection; for % Hemmung 6h: 6 h after kaolin injection
Text: as §1

Row | Structure (SMILES) | % Hemmung 2h [1] | % Hemmung 4h [1] | % Hemmung 6h [1] | Hemmeffekt % (Pfotenoedem; 50 mg/kg) [%] | further results
1 | O=C(O)Cc1cn(-c2ccccc2)nc1-c1ccc(Cl)cc1 [Lonazolac, 3-(4-Chlorphenyl)-1-phenyl-1H-pyrazol-4-essigsäure, reference compound] | 0% | 3.1% | 30.0*** % |  | Hemmeffekt % (Pfotenoedem; 25 mg/kg): 38%
2 | CC(C)Cc1ccc(C(C)C(=O)O)cc1 (centres unmarked) [Ibuprofen, 2-(4-Isobutylphenyl)-propionsäure, reference compound] |  |  |  | 35 | 
3 | CC(C)(CO)COC(=O)c1ccccc1Nc1cccc(C(F)(F)F)c1 [Beispiel 1, Flufenaminsäureneopentylglykolmonoester] | 2.2% | 23.7*** % | 36.8*** % | 55 | Hemmeffekt % (Pfotenoedem; 25 mg/kg): 38%
4 | CC(C)(C)COC(=O)Cc1cn(-c2ccccc2)nc1-c1ccc(Cl)cc1 [Beispiel 3, Lonazolacneopentylester] | 18.2* % | 31.6*** % | 34.3*** % |  | 
5 | CC(C)Cc1ccc(C(C)C(=O)OCC(C)(C)C)cc1 (centres unmarked) [Beispiel 17] |  |  |  |  | Hemmeffekt % (Pfotenoedem; 25 mg/kg): 43%
6 | CC(C)(C)COC(=O)COC(=O)Cc1cn(-c2ccccc2)nc1-c1ccc(Cl)cc1 [Beispiel 22] |  |  |  |  | Hemmeffekt % (Pfotenoedem; 15 mg/kg): 46%
7 | CC(C)Cc1ccc(C(C)C(=O)OCC(C)(C)CO)cc1 (centres unmarked) [Beispiel 11] |  |  |  | 47 | 
8 | CC(C)(C)COC(=O)Cc1ccccc1Nc1c(Cl)cccc1Cl [Beispiel 16] | 19.2* % | 40.1*** % | 43.2*** % | 36 | 
9 | CC(C)(C)COC(=O)COC(=O)Cc1ccccc1Nc1c(Cl)cccc1Cl [Beispiel 24] |  |  |  | 33 | 
10 | O=C(O)c1ccccc1Nc1cccc(C(F)(F)F)c1 [Flufenaminsäure, N-(α,α,α-Trifluor-m-tolyl)anthranilsäure, reference compound] | 0% | 19.4** % | 23.2** % | 33 | 
11 | CC(C(=O)OCC(=O)OCC(C)(C)C)c1ccc(-c2ccccc2)c(F)c1 (centres unmarked) [Beispiel 4] |  |  |  |  | Hemmeffekt % (Pfotenoedem; 25 mg/kg): 33%
12 | CC(C(=O)O)c1ccc(C(=O)c2cccs2)cc1 (centres unmarked) [Suprofen, 2-[4-(2-Thenoyl)phenyl]-propionsäure, reference compound] |  |  |  | 20 | 
13 | CC(C(=O)OCC(C)(C)C)c1ccc(-c2ccccc2)c(F)c1 (centres unmarked) [Beispiel 14] |  |  |  |  | Hemmeffekt % (Pfotenoedem; 1 mg/kg): 35%
14 | CC(C(=O)OCC(C)(C)CO)c1cccc(C(=O)c2ccccc2)c1 (centres unmarked) [Beispiel 5] |  |  |  |  | Hemmeffekt % (Pfotenoedem; 10 mg/kg): 33%
15 | CC(C(=O)OCC(C)(C)C)c1ccc(C(=O)c2cccs2)cc1 (centres unmarked) [Beispiel 15] |  |  |  |  | Hemmeffekt % (Pfotenoedem; 5 mg/kg): 37%
16 | CC(C(=O)O)c1ccc(-c2ccccc2)c(F)c1 (centres unmarked) [Flurbiprofen, 2-(2-Fluor-4-biphenylyl)-propionsäure, reference compound] |  |  |  | 40 | 
17 | CC(C(=O)O)c1cccc(C(=O)c2ccccc2)c1 (centres unmarked) [Ketoprofen, 2-(3-Benzoylphenyl)-propionsäure, reference compound] |  |  |  |  | Hemmeffekt % (Pfotenoedem; 38 mg/kg): 44%
18 | CC(C(=O)OCC(C)(C)CO)c1ccc(C(=O)c2cccs2)cc1 (centres unmarked) [Beispiel 9] |  |  |  |  | Hemmeffekt % (Pfotenoedem; 10 mg/kg): 34%; Hemmeffekt % (Pfotenoedem; 25 mg/kg): 43%
19 | O=C(O)Cc1ccccc1Nc1c(Cl)cccc1Cl [Diclofenac, 2-[(2,6-Dichlorphenyl)amino]-phenylessigsäure, reference compound] | 0% | 36.2*** % | 37.6*** % |  | Hemmeffekt % (Pfotenoedem; 100 mg/kg): 38%
